melting point [°C]	Structure (SMILES)
192 to 194	COc1cc2cc(C=Cc3ccccc3Cl)[nH]c2cc1OCc1ccccc1
42 to 43	CON(C)C(=O)c1ccc(-c2ccc(CN(C)C)cc2)cc1
197 to 199	NNC(=O)c1cc2c(Oc3ccc(Cl)cc3)cncc2s1
297 to 298	O=C(O)/C=C/n1cnc2ccc(Cl)cc2c1=O
181 to 183	N#Cc1ccc(OCCc2c[nH]cn2)cc1
114 to 115	NS(=O)(=O)Oc1ccc2ccccc2c1
90 to 97	CCCNC(=O)C(C)=Cc1ccc2c(c1)c(Cc1ccc(C(=O)O)cc1OC)cn2CCC(=O)N(C)C
93 to 94	O=C(OC[C@H]1CC(=O)[C@@H]1COC(=O)c1ccccc1)c1ccccc1
109 to 112	CC1CC=CCN1Cc1ccc(O)cc1 (stereo not drawn)
159	CC(C)(C)c1cc(C(=O)CCl)ccc1Cl
98 to 101	CC(CS)C(=O)N1c2ccccc2CCC1C(=O)O (stereo not drawn)
247 to 249	CN1CCC(c2[nH]c(=O)c3ccccc3c2-c2ccccc2F)CC1
208	Cn1c(N2CCOC(c3noc(-c4ccccc4)n3)C2)nc(-c2ccncn2)cc1=O (stereo not drawn)
169 to 170	NC(=O)N1CC(Oc2ccc(Cl)cc2Cl)C1
245 to 247	NS(=O)(=O)c1csc2cc(O)cnc12
< 60	OCc1c(F)ccc(-n2cccc2)c1F
182 to 183	O=C(O)CCc1cc(OCCCc2cn(-c3ccc(C(F)(F)F)cn3)nc2C2CCCCC2)nn1-c1ccccc1
121 to 128	O=c1c2c(Cl)cc(Cl)cc2n(Cc2ccccc2)c(=O)n1Cc1cccc(Br)c1
133	COCCO[C@@H]1c2ccc3c(nc(C4CC4)n3C)c2O[C@H](c2ccccc2)[C@H]1O
135 to 136	NC(CNCC(N)=NO)=NO
165 to 175	COC(=O)c1c[nH]c(Sc2cc(Cl)c(Cl)cc2Cl)c1
161 to 162	COc1cc(CCCC2OC(=O)NC2=O)ccc1OCc1nc(-c2ccccc2)oc1C (stereo not drawn)
173	O=C(CN1CCNCC1)Nc1ccc2c(c1)C(=O)c1cc(NC(=O)CN3CCNCC3)ccc1C2=O
227	O=C(Nc1ccc(C(=O)NCCCN2CCOCC2)cc1O)C(=O)Nc1cc(Cl)cc(Cl)c1O

melting point [°C]	Structure (SMILES)
104 to 107	O=[N+]([O-])c1ccc(Sc2ccccc2)c(CO)c1
146 to 148	CC(=O)OC(CBr)Cc1c(O)ccc2ncccc12 (stereo not drawn)
133 to 134	COc1ccc2c(CNCCCCCC(=O)O)cc3cc(OC)c(OC)cc3c2c1
136 to 138	Cc1cc(CO)cc(C#N)n1
127 to 128	COc1ccc(-c2cc(C(=O)NCc3ccccn3)c(=O)n(CC3CCCC3)n2)cc1
285 to 286	O=c1c(-c2ccc(NS(=O)(=O)c3ccccc3)cc2)coc2cc(O)c(O)cc12
115 to 116	CCCC(=O)c1cnc2c(OCC)nccc2c1OS(C)(=O)=O
187 to 189	CCOC(=O)NCc1cccc2c1C(=O)N(C1CCC(=O)NC1=O)C2=O (stereo not drawn)
152 to 153	O=C(c1ccc(O)cc1)c1sc2ccc(O)cc2c1-c1ccccc1
168 to 170	CCOC(=O)C(c1ccc(Nc2nc(-c3cccc(NC(=O)c4cc5c(s4)CCCCC5)c3C)cn(C)c2=O)cc1)N1CCN(CC)CC1 (stereo not drawn)
178 to 180	Cc1ccc(S(=O)(=O)NC(=O)Nc2ccc(Br)c(C)c2)cc1
134	O=C(OCC1CC1)c1ccc(OCCC2CCN(c3ccc(Cl)nn3)CC2)cc1
306	NS(=O)(=O)c1cccc(NC(=O)c2cnn3c(C(F)F)cc(-c4ccc(Cl)c(Cl)c4)nc23)c1
123 to 125	C[C@@H]1CNCc2cc3ccc(C(F)(F)F)cc3n21
> 300	Cc1cc2oc(C(N)=O)cc(=O)c2c(C)c1Cl
> 260	COc1cccc2[nH]c3c(c12)C(=O)N=NC3=O
172 to 173	Cc1nc(N2CCN(Cc3ccc(OC(F)(F)F)cc3)C2=O)sc1C(=O)NCCc1cccnc1
117 to 118	OC[C@H](O)[C@@H](O)CCNCc1ccccc1
114	FC(F)(F)CO[Si](c1ccccc1)(c1ccccc1)c1ccccc1
114 to 115	OCc1sccc1C=Cc1csc2ccccc12
128 to 130	N#CC1(NCC2CCCCC2)CCN(Cc2ccccc2)CC1
142	CC(n1ccnc1)C1(c2ccc(Cl)cc2Cl)SCCS1 (stereo not drawn)
118 to 122	CCOC(=O)CN1CCN(CC(O)COc2cc3c(Nc4cccc(Br)c4)ncnc3cc2OC)CC1 (stereo not drawn)
109 to 110	C=C(C)Cc1c(C)c(OC(C)=O)c(C)c(C)c1O

melting point [°C]	Structure (SMILES)
112 to 115	CCCCCCCCCCCCCCOc1ccc(C(=O)Nc2cccc(CO)c2)cc1
132 to 135	CN(C)c1ccccc1CS(=O)(=O)c1nccn1-c1ccncc1
181 to 183	CN(C(=O)OC(C)(C)C)[C@@H]1CCc2c(c3cc(S(=O)(=O)c4ccccc4)ccc3n2C)C1
104 to 107	COC(=O)c1ccc(CNc2ccc3c(c2)C(C)(C)CCC3(C)C)cc1
125 to 126	CCOC(=O)C(C)(C)Oc1ccc(OCCn2c(=O)sc3cc(C(=O)c4cccc(Cl)c4)ccc32)cc1
118	NC(=O)COc1cccc(CCNS(=O)(=O)c2cccc(C(F)(F)F)c2)c1
100 to 101	CCOC(=O)COc1cc(C)c(C)c2c1CCC2=O
155 to 157	O=C(c1ccc(-n2ccnc2-c2ccccc2)cc1)C1CC1
114 to 115	Cc1oc(-c2ccccc2)nc1COc1cccc(CON=C(CCCCC(=O)O)c2ccccc2)c1
93 to 94	CCCC(=O)c1cn(C)cc(-c2cccc(C(F)(F)F)c2)c1=O
120 to 122	Cc1oc(-c2ccco2)nc1CCOc1ccc([N+](=O)[O-])cn1
111 to 113	Cc1c(C(=O)N[C@@H](Cc2ccc(OCc3ccsc3)cc2)C(=O)O)oc2cc(-c3ccc(Cl)cc3)ccc12
129 to 130	CCOC(=NC(=O)Nc1ccc(OC(F)(F)F)cc1)N1Cc2ccccc2-c2ccccc2C1
257 to 260	O=C1C(=O)N(Cc2ccc([N+](=O)[O-])cc2)CCN1Cc1ccc([N+](=O)[O-])cc1
234 to 235	COc1ccccc1C=C1NC(=S)NC1=O
68 to 70	COC(=O)c1c(F)c(F)c(F)c(F)c1C(=O)OC
94	O=C(O)CC[C@H](NCC(O)C(O)C(O)C(O)CO)C(=O)O (stereo partly drawn)
194 to 196	Cc1c(-c2ncc(Cl)cc2F)nn(C)c1C(=O)O
70	COC(=O)Cc1ccc(CNC(=O)C2Cc3ccccc3N2S(=O)(=O)c2ccc(-c3ccc(F)cc3Cl)cc2)cc1 (stereo not drawn)
186	O=C(Nc1ccccc1S(=O)(=O)c1ccccc1)N[C@@H](Cc1ccc(OC(=O)c2c(Cl)cncc2Cl)cc1)C(=O)O
181	CCCCOc1nc(NC2=CCC(=C=C3CC4CCC3(C)C4(C)C)C=C2)nc(NC2=CCC(=C=C3CC4CCC3(C)C4(C)C)C=C2)n1
251 to 253	CCN1CCN(c2cc3c(cc2F)c(=O)c(C(=O)O)cn3CC)CC1
196	OC1CSC(Oc2cncc(-c3ccc(N4CCCCC4)cc3)c2)C(O)C1O (stereo not drawn)
88 to 90	FC(F)(F)c1cccc(CSc2nnc(-c3ccc4c(c3)CCO4)o2)c1

melting point [°C]	Structure (SMILES)
> 300	CC1(C)CC(=O)C2=C(C1)NC1=C(C(=O)CC(C)(C)C1)C2c1ccc2c(c1)OCCO2
206 to 207	Fc1cc2c(cc1F)CC(n1cc[nH]c1=S)CC2 (stereo not drawn)
100 to 102	CC(C)(C)OC(=O)CN1CCN(CC(=O)OC(C)(C)C)C1=O
168	Cc1nn(CC(F)F)c(-c2ccc(F)cc2)c1-c1ccc2c(c1)NC(=O)CO2
84 to 85	O=C(C1COc2ccccc2O1)N1CCNCC1 (stereo not drawn)
122 to 124	CCNc1ncc(Nc2ccc(Cl)cc2)nc1-n1nc(C)cc1C
266 to 268	Cc1cnc(N2C(=O)C(O)=C(C(=O)c3ccc(C(C)C)cc3)C2c2ccc(OC(F)(F)F)cc2)cn1 (stereo not drawn)
172 to 175	CN1CCN(c2ccc(Nc3ncc4c(n3)S/C(=C/c3ccc(F)cc3)C(=O)N4)cc2)CC1
182 to 185	O=C(Cn1c(-c2ccncc2)ncc(NC(=O)OCc2ccccc2)c1=O)NC(Cc1ccccc1)C(=O)C(F)(F)F (stereo not drawn)
88 to 108	Cc1ccc(C(=C(C=CC=O)c2nnnn2C)c2ccc(C)cc2F)c(F)c1
175 to 177	COc1ccc(CC(=O)O)c(C(=O)O)c1
238 to 240	Cc1ccc(-c2[nH]c3ccc(Cl)cc3c2-c2ccc(S(C)(=O)=O)cc2)cc1
216 to 218	Brc1ccc2c(c1)N=C(N1CCOCC1)c1cccc3c1N2CC3
300	Nc1ncnc2c1ncn2Cc1nc2cccc(Cl)c2c(=O)n1-c1ccccc1-c1ccccc1
205	Nc1nc(N)c2ncn(COCCOC(=O)c3ccccc3)c2n1
95 to 98	Cc1cc(-c2cccc(NC(=O)C(C)(C)C)c2)cc2c1[C@H]1CCC(=O)N(C)[C@@H]1CC2
104 to 105	CCCCCCC(=O)c1ccc(OCC(=O)O)c(Cl)c1Cl
234 to 235	O=C(O)C1=Cc2cc(Cl)c(Oc3ccccn3)cc2OC1C(F)(F)F (stereo not drawn)
196 to 197	COc1ccc2nc3snc(C(=O)c4ncc(C)c(OC)c4C)n3c2c1
247 to 249	O=C(OCc1ccccc1)N1CCN(c2ccc(-c3ccnc(Nc4ccc5[nH]nnc5c4)n3)cn2)CC1
132 to 133	CCOC(=O)N1CCC2(CC1)Oc1ccccc1C2n1cccc1 (stereo not drawn)
245	O=C1c2ccccc2C(=O)c2sc(-c3ccoc3)nc21

Structure (SMILES)	melting point [°C]
CS(=O)(=O)N(c1ccccc1)C1CCN(Cc2ccccc2)CC1	125
CN1C(=O)CN=C(c2ccccc2Cl)c2cc([N+](=O)[O-])ccc21	220
Nc1ncnc2c1ncn2Cc1nc2cccc(F)c2c(=O)n1-c1ccccc1Cl	159 to 172
CN(C)c1ccc(Pc2ccc(N(C)C)cc2)cc1	80 to 90

Source: a melting point compilation (Tetko et al.; mined from patent text by program, amines drawn as free bases though some values may be those of a salt)
